Test results as given in ChEMBL document CHEMBL1201862, “PubChem BioAssay data set” (2004).
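48-hour exposure; five concentrations; linearly interpolated endpoints. At the GI50, growth is halved.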 Calls of active or inactive are those of the source. No stated cut-off is given here; in the data, active = GI50 up to about 1.1 µM and inactive = higher.

Columns and labels:
Test in all cases: NCI-60 cell line screen, 48 h
IGROV-1 = system: IGROV-1
COLO 205 = system: COLO 205
UO-31 = system: UO-31
DLD-1 = system: DLD-1
TK-10 = system: TK-10
SK-OV-3 = system: SK-OV-3
LXFL 529 = system: LXFL 529
DMS-273 = system: DMS-273
NCI-H226 = system: NCI-H226
SN12C = system: SN12C
HL-60 = system: HL-60
RPMI-8226 = system: RPMI-8226
HCC 2998 = system: HCC 2998
CAKI-1 = system: CAKI-1
SF-539 = system: SF-539
LOX IMVI = system: LOX IMVI
A549 = system: A549
SK-MEL-5 = system: SK-MEL-5
SF-295 = system: SF-295
MOLT-4 = system: MOLT-4
SK-MEL-28 = system: SK-MEL-28
OVCAR-8 = system: OVCAR-8
786-0 = system: 786-0
OVCAR-5 = system: OVCAR-5
NCI-H460 = system: NCI-H460
OVCAR-3 = system: OVCAR-3
HOP-92 = system: HOP-92
SW-620 = system: SW-620
HCT-116 = system: HCT-116
SNB-78 = system: SNB-78
M19-MEL = system: M19-MEL
XF498 = system: XF498
NCI-H23 = system: NCI-H23
SR = system: SR
Malme-3M = system: Malme-3M
U-251 = system: U-251
HOP-62 = system: HOP-62
SK-MEL-2 = system: SK-MEL-2
HT-29 = system: HT-29
NCI-H522 = system: NCI-H522
UACC-257 = system: UACC-257
CCRF-CEM = system: CCRF-CEM
EKVX = system: EKVX
K562 = system: K562
UACC-62 = system: UACC-62
A498 = system: A498
RXF 631 = system: RXF 631
M14 = system: M14
ACHN = system: ACHN
HOP-18 = system: HOP-18
KM-20L2 = system: KM-20L2
HCT-15 = system: HCT-15
SNB-75 = system: SNB-75
KM12 = system: KM12
DMS-114 = system: DMS-114
SF-268 = system: SF-268
OVCAR-4 = system: OVCAR-4
SNB-19 = system: SNB-19
RXF 393 = system: RXF 393

In the case of `O=C(O)COc1ccc(C(=O)/C(SS/C(C(=O)c2ccc(OCC(=O)O)c(Cl)c2Cl)=C2\C=C(c3ccccc3Cl)SS2)=C2/C=C(c3ccccc3Cl)SS2)c(Cl)c1Cl`, the GI50 (IGROV-1) is reported as 21.3 µM (inactive), the GI50 (COLO 205) is reported as 17.6 µM (inactive) and the GI50 (UO-31) is reported as 24.3 µM (inactive). For the same compound, the GI50 (DLD-1) was 25 µM (inactive), the GI50 (TK-10) was 33.3 µM (inactive) and the GI50 (SK-OV-3) was 44.1 µM (inactive). For the same compound, the GI50 (LXFL 529) was 5.5 µM (inactive), the GI50 (DMS-273) was 25.6 µM (inactive) and the GI50 (NCI-H226) was 17.7 µM (inactive). For the same compound, the GI50 (SN12C) was 30.6 µM (inactive), the GI50 (HL-60) was 2.59 µM (inactive) and the GI50 (RPMI-8226) was 18.3 µM (inactive). For the same compound, the GI50 (HCC 2998) was 57.1 µM (inactive), the GI50 (CAKI-1) was 39.4 µM (inactive) and the GI50 (SF-539) was 11.8 µM (inactive). The GI50 (LOX IMVI) was 9.89 µM (inactive), the GI50 (A549) was 46.8 µM (inactive) and the GI50 (SK-MEL-5) was 18.3 µM (inactive). The GI50 (SF-295) was 37.5 µM (inactive), the GI50 (MOLT-4) was 21.9 µM (inactive) and the GI50 (SK-MEL-28) was 20.6 µM (inactive). For the same compound, the GI50 (OVCAR-8) was 23.7 µM (inactive), the GI50 (786-0) was 19.8 µM (inactive) and the GI50 (OVCAR-5) was > 70.3 µM (inactive). The GI50 (NCI-H460) was 21.8 µM (inactive), the GI50 (OVCAR-3) was 17.9 µM (inactive) and the GI50 (HOP-92) was 7.89 µM (inactive). For the same compound, the GI50 (SW-620) was 25.5 µM (inactive), the GI50 (HCT-116) was 18 µM (inactive) and the GI50 (SNB-78) was 16.9 µM (inactive). For the same compound, the GI50 (M19-MEL) was 28.5 µM (inactive), the GI50 (XF498) was 13.6 µM (inactive) and the GI50 (NCI-H23) was 22 µM (inactive). For the same compound, the GI50 (SR) was 2.23 µM (inactive), the GI50 (Malme-3M) was 53.8 µM (inactive) and the GI50 (U-251) was 6.61 µM (inactive). For the same compound, the GI50 (HOP-62) was 72.1 µM (inactive), the GI50 (SK-MEL-2) was 23.2 µM (inactive) and the GI50 (HT-29) was 21.7 µM (inactive). For the same compound, the GI50 (NCI-H522) was 3.27 µM (inactive), the GI50 (UACC-257) was 48.8 µM (inactive) and the GI50 (CCRF-CEM) was 13 µM (inactive). The GI50 (EKVX) was 40.6 µM (inactive), the GI50 (K562) was 8.91 µM (inactive) and the GI50 (UACC-62) was 23.1 µM (inactive). For the same compound, the GI50 (A498) was 34.7 µM (inactive), the GI50 (RXF 631) was 25.5 µM (inactive) and the GI50 (M14) was 28.2 µM (inactive). For the same compound, the GI50 (ACHN) was 23.5 µM (inactive), the GI50 (HOP-18) was 24.1 µM (inactive) and the GI50 (KM-20L2) was 49.8 µM (inactive). For the same compound, the GI50 (HCT-15) was 21.7 µM, the GI50 (SNB-75) was 35.1 µM (inactive) and the GI50 (KM12) was 31.2 µM (inactive). The GI50 (DMS-114) was 9.73 µM (inactive), the GI50 (SF-268) was 22 µM (inactive) and the GI50 (OVCAR-4) was 19.8 µM (inactive). The GI50 (SNB-19) was 22.6 µM (inactive).

With `COC1C2c3cc4c(cc3CC(C#N)(c3ccccc32)N1C(=O)c1ccccc1)OCO4` (configuration not stated) the GI50 (IGROV-1) was > 100 µM (inactive), the GI50 (COLO 205) was > 100 µM (inactive) and the GI50 (UO-31) was 78.3 µM (inactive). The GI50 (DLD-1) was > 100 µM (inactive), the GI50 (TK-10) was > 100 µM (inactive) and the GI50 (SK-OV-3) was > 100 µM (inactive). The GI50 (LXFL 529) was > 100 µM (inactive), the GI50 (DMS-273) was > 100 µM (inactive) and the GI50 (NCI-H226) was 93.3 µM (inactive). The GI50 (SN12C) was > 100 µM (inactive), the GI50 (HL-60) was > 100 µM (inactive) and the GI50 (RPMI-8226) was 21 µM (inactive). For the same compound, the GI50 (HCC 2998) was > 100 µM (inactive), the GI50 (SF-539) was > 100 µM (inactive) and the GI50 (LOX IMVI) was > 100 µM (inactive). For the same compound, the GI50 (SK-MEL-5) was 33 µM (inactive), the GI50 (SF-295) was > 100 µM (inactive) and the GI50 (MOLT-4) was 97.5 µM (inactive). For the same compound, the GI50 (SK-MEL-28) was > 100 µM (inactive), the GI50 (OVCAR-8) was > 100 µM (inactive) and the GI50 (786-0) was > 100 µM (inactive). For the same compound, the GI50 (OVCAR-5) was > 100 µM (inactive), the GI50 (NCI-H460) was > 100 µM (inactive) and the GI50 (RXF 393) was 32.2 µM (inactive). For the same compound, the GI50 (OVCAR-3) was > 100 µM (inactive), the GI50 (HOP-92) was > 100 µM (inactive) and the GI50 (SW-620) was > 100 µM (inactive). The GI50 (HCT-116) was > 100 µM (inactive), the GI50 (SNB-78) was > 100 µM (inactive) and the GI50 (XF498) was > 100 µM (inactive). For the same compound, the GI50 (NCI-H23) was > 100 µM (inactive), the GI50 (SR) was 54.7 µM (inactive) and the GI50 (Malme-3M) was > 100 µM (inactive). For the same compound, the GI50 (U-251) was > 100 µM (inactive), the GI50 (HOP-62) was 48 µM (inactive) and the GI50 (SK-MEL-2) was > 100 µM (inactive). For the same compound, the GI50 (HT-29) was > 100 µM (inactive), the GI50 (NCI-H522) was 87.3 µM (inactive) and the GI50 (UACC-257) was > 100 µM (inactive). For the same compound, the GI50 (CCRF-CEM) was > 100 µM (inactive), the GI50 (EKVX) was > 100 µM (inactive) and the GI50 (K562) was 54.6 µM (inactive). The GI50 (UACC-62) was 4.94 µM (inactive), the GI50 (RXF 631) was > 100 µM (inactive) and the GI50 (M14) was > 100 µM (inactive). For the same compound, the GI50 (ACHN) was > 100 µM (inactive), the GI50 (HOP-18) was > 100 µM (inactive) and the GI50 (KM-20L2) was > 100 µM (inactive). The GI50 (HCT-15) was greater than 100 µM, the GI50 (SNB-75) was > 100 µM (inactive) and the GI50 (KM12) was > 100 µM (inactive). For the same compound, the GI50 (DMS-114) was 70.6 µM (inactive), the GI50 (SF-268) was > 100 µM (inactive) and the GI50 (SNB-19) was > 100 µM (inactive).
